compound: c1ccc2c(CCNc3ccc(Nc4ccncc4)cc3)c[nH]c2c1 [Serdemetan] + CCNC(=O)c1noc(-c2cc(C(C)C)c(O)cc2O)c1-c1ccc(CN2CCOCC2)cc1 [Luminespib] (partner 0.01 µM); assay: relative viability (nuclei count vs DMSO), 5 days (fraction); higher = more cells survive; settings: first compound 0.04 µM
Summary of the method: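 Dosing by pin tool came one day after lung cancer cell lines were seeded in 1536-well plates, using either one drug or a fixed anchor-drug dose plus five library-drug doses (not always all listed) in √10 steps. After 5 days, nuclei were counted on 4× images. Relative viability is treated-well nuclei count divided by vehicle-well nuclei count, and values are medians of duplicate plates.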

Row | Cell Line | relative viability
1 | NCI-H322M | 0.807
2 | LCLC-97TM1 | 0.739
3 | NCI-H2009 | 0.925
4 | A-427 | 0.934
5 | NCI-H441 | 0.381
6 | NCI-H661 | 0.91
7 | NCI-H1734 | 0.198
8 | NCI-H460 | 0.0305
9 | NCI-H2347 | 1.08
10 | SK-LU-1 | 0.19
11 | NCI-H1395 | 0.651
12 | 201T | 1.05
13 | NCI-H1915 | 0.74
14 | HCC-827 | 0.606
15 | LXF-289 | 0.636
16 | NCI-H23 | 0.219
17 | NCI-H647 | 0.272

Row | Cell Line | relative viability
18 | CAL-12T | 0.227
19 | NCI-H1651 | 0.714
20 | EPLC-272H | 0.307
21 | NCI-H2228 | 0.119
22 | NCI-H1792 | 0.471
23 | NCI-H1355 | 0.671
24 | NCI-H3122 | 0.0976
25 | NCI-H1437 | 1.11
26 | NCI-H1755 | 0.417
27 | NCI-H2023 | 0.818
28 | HCC-15 | 0.362
29 | NCI-H1793 | 0.17
30 | PC-14 | 0.129
31 | EKVX | 0.947
32 | LC-2-ad | 0.951
33 | NCI-H1944 | 0.664

same assay, conditions: first compound 0.1265 µM

Row | Cell Line | relative viability
34 | HARA | 0.604
35 | NCI-H322M | 0.845
36 | LCLC-97TM1 | 0.738
37 | NCI-H2009 | 0.979
38 | A-427 | 0.924
39 | NCI-H441 | 0.298
40 | NCI-H661 | 0.943
41 | NCI-H1734 | 0.24
42 | NCI-H460 | 0.0294
43 | NCI-H2347 | 0.56
44 | SK-LU-1 | 0.201
45 | NCI-H1395 | 0.671
46 | 201T | 1.07
47 | NCI-H1915 | 0.73
48 | HCC-827 | 0.563
49 | LXF-289 | 0.706
50 | NCI-H23 | 0.223

Row | Cell Line | relative viability
51 | NCI-H647 | 0.185
52 | CAL-12T | 0.28
53 | NCI-H1651 | 0.591
54 | EPLC-272H | 0.401
55 | NCI-H2228 | 0.201
56 | NCI-H1792 | 0.407
57 | NCI-H1355 | 0.667
58 | NCI-H3122 | 0.0835
59 | NCI-H1437 | 1
60 | NCI-H1755 | 0.43
61 | NCI-H2023 | 0.857
62 | HCC-15 | 0.33
63 | NCI-H1793 | 0.186
64 | PC-14 | 0.163
65 | EKVX | 0.925
66 | LC-2-ad | 0.944
67 | NCI-H1944 | 0.679

same assay, conditions: first compound 0.4 µM

Row | Cell Line | relative viability
68 | HARA | 0.606
69 | NCI-H322M | 0.772
70 | LCLC-97TM1 | 0.653
71 | NCI-H2009 | 0.997
72 | A-427 | 0.953
73 | NCI-H441 | 0.321
74 | NCI-H661 | 0.95
75 | NCI-H1734 | 0.196
76 | NCI-H460 | 0.0326
77 | NCI-H2347 | 0.215
78 | SK-LU-1 | 0.223
79 | NCI-H1395 | 0.673
80 | 201T | 1.03
81 | NCI-H1915 | 0.672
82 | LXF-289 | 0.625
83 | NCI-H23 | 0.214

Row | Cell Line | relative viability
84 | NCI-H647 | 0.176
85 | CAL-12T | 0.141
86 | NCI-H1651 | 0.457
87 | EPLC-272H | 0.373
88 | NCI-H2228 | 0.159
89 | NCI-H1792 | 0.422
90 | NCI-H1355 | 0.609
91 | NCI-H3122 | 0.115
92 | NCI-H1437 | 1.06
93 | NCI-H1755 | 0.568
94 | NCI-H2023 | 0.721
95 | HCC-15 | 0.281
96 | NCI-H1793 | 0.343
97 | EKVX | 0.861
98 | LC-2-ad | 0.969
99 | NCI-H1944 | 0.691

same assay, conditions: first compound 1.265 µM

Row | Cell Line | relative viability
100 | HARA | 0.303
101 | NCI-H322M | 0.861
102 | NCI-H2009 | 1.01
103 | A-427 | 0.742
104 | NCI-H441 | 0.316
105 | NCI-H661 | 0.799
106 | NCI-H1734 | 0.15
107 | NCI-H460 | 0.0303
108 | NCI-H2347 | 0.264
109 | NCI-H1395 | 0.6
110 | 201T | 0.895
111 | NCI-H1915 | 0.514
112 | HCC-827 | 0.288
113 | LXF-289 | 0.517
114 | NCI-H23 | 0.211
115 | NCI-H647 | 0.123
116 | CAL-12T | 0.266
117 | NCI-H1651 | 0.473
118 | EPLC-272H | 0.252
119 | NCI-H2228 | 0.16
120 | NCI-H1792 | 0.415
121 | NCI-H1355 | 0.353
122 | NCI-H1437 | 1.02
123 | NCI-H1755 | 0.39
124 | NCI-H2023 | 0.334
125 | HCC-15 | 0.348
126 | NCI-H1793 | 0.169
127 | PC-14 | 0.149
128 | LC-2-ad | 0.898
129 | NCI-H1944 | 0.249

same assay, conditions: first compound 4 µM

Row | Cell Line | relative viability
130 | HARA | 0.199
131 | NCI-H322M | 0.678
132 | LCLC-97TM1 | 0.596
133 | NCI-H2009 | 0.888
134 | A-427 | 0.49
135 | NCI-H441 | 0.325
136 | NCI-H661 | 0.854
137 | NCI-H1734 | 0.186
138 | NCI-H460 | 0.0264
139 | NCI-H2347 | 0.292
140 | SK-LU-1 | 0.207
141 | NCI-H1395 | 0.459
142 | 201T | 0.692
143 | NCI-H1915 | 0.532
144 | HCC-827 | 0.344
145 | LXF-289 | 0.401
146 | NCI-H23 | 0.196

Row | Cell Line | relative viability
147 | NCI-H647 | 0.112
148 | CAL-12T | 0.486
149 | NCI-H1651 | 0.273
150 | EPLC-272H | 0.602
151 | NCI-H2228 | 0.145
152 | NCI-H1792 | 0.298
153 | NCI-H1355 | 0.449
154 | NCI-H3122 | 0.101
155 | NCI-H1437 | 0.788
156 | NCI-H1755 | 0.343
157 | NCI-H2023 | 0.193
158 | HCC-15 | 0.288
159 | NCI-H1793 | 0.165
160 | PC-14 | 0.107
161 | EKVX | 0.585
162 | LC-2-ad | 0.899
163 | NCI-H1944 | 0.306

— the supplement of paper PMC10307832
